# Measurements as given in publication PMC5191990 (Bioorganic & medicinal chemistry, 2016).
# Where a name gives a salt, the structure may show the parent alone.
# Columns and labels:
# Parental OVCAR-8 cells = assay: Cell proliferation; format: cell-based; details: Homo sapiens, OVCAR-8, 96 h, read-out: Parental OVCAR-8 IC50 (µM) ± SD
# [1] = target: T1, purified bovine brain tubulin (Bos taurus, UniProt P81947+Q6B856); assay: Tubulin assembly assay; format: biochemical; details: ratio of tubulin assembly IC50 vs 5
# T1 sequence (P81947 whole entry): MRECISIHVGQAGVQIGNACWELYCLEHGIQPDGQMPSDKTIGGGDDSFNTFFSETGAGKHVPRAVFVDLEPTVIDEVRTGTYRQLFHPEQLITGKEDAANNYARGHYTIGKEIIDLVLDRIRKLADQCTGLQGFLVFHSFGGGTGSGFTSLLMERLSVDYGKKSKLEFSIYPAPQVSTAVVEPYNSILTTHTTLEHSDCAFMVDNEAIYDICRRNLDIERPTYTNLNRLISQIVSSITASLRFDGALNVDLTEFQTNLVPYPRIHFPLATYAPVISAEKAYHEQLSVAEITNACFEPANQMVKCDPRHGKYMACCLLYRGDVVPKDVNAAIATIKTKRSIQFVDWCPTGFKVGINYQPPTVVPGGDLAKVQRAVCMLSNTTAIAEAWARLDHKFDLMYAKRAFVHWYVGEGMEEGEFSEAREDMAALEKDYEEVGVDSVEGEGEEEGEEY
# T1 sequence (Q6B856 whole entry): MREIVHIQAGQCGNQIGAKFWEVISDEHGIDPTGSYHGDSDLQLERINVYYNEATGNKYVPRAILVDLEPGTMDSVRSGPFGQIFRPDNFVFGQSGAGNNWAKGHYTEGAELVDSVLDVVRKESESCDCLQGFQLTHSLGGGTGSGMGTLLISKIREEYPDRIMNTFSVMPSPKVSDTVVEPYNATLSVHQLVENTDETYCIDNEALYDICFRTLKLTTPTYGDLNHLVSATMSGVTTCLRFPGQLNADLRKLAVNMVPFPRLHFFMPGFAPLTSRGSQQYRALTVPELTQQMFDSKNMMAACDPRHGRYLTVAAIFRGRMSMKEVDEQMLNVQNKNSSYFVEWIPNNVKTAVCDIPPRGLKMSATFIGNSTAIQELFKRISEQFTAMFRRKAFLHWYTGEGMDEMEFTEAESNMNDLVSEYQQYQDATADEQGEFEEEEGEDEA
# [2] = system: β-III overexpressing HeLa cells; assay: Cell proliferation; format: cell-based
# WT HeLa cells = assay: Cell proliferation; format: cell-based; details: Homo sapiens, 96 h, read-out: WT HeLa IC50 (µM) ± SD
# [3] = target: T1, purified bovine brain tubulin; details: read-out: tubulin assembly IC50 (µM) ± SD; cited from earlier work
# [4] = system: BLBC MDA-MB-435 and U251 glioma xenografts, 4T1 triple negative breast allograft; details: cited from earlier work
# [5] = system: Pgp overexpressing NCI/ADR-RES cells; assay: Cell proliferation; format: cell-based; details: Homo sapiens, 96 h, read-out: Pgp overexpressing NCI/ADR-RES IC50 (µM) ± SD
structure (smiles),measurement,setting,value
"COc1ccc2c(c1)CCCN2c1nc(C)nc2c(Cc3ccccc3)c[nH]c12 [5·HCl, 1-(7-benzyl-2-methyl-5H-pyrrolo[3,2-d]pyrimidin-4-yl)-6-methoxy-1,2,3,4-tetrahydroquinoline hydrochloride]",IC50,Parental OVCAR-8 cells,0.12 ± 0.004 µM
"COc1ccc(N(C)c2nc(C)nc3c(Cc4ccccc4)cn(C)c23)cc1.Cl [7·HCl, 7-benzyl-N-(4-methoxyphenyl)-N,2,5-trimethyl-5H-pyrrolo[3,2-d]pyrimidin-4-amine hydrochloride]",fold more potent than 5 in tubulin assembly,[1],~7 fold
same,fold less potent in βIII-tubulin overexpressing HeLa than in wild type HeLa,[2]; isogenic HeLa cell line pair,equal potency
"COc1ccc(/C=C\c2cc(OC)c(OC)c(OC)c2)cc1O [CA, combretastatin A-4]",IC50,WT HeLa cells,0.0018 ± 0.0004 µM
COc1ccc(N(C)c2nc(C)nc3c(Cc4ccccc4)c[nH]c23)cc1 [Compound 3],IC50,[3],21 ± 1 µM
same,toxicity to animals,[4],without overt toxicity
same,tumor size and vascularity,[4]; two flank xenograft models and 4T1 orthotopic allograft,reduced tumor size and vascularity
"CC(=O)O[C@H]1C(=O)[C@@]2(C)[C@H]([C@H](OC(=O)c3ccccc3)[C@]3(O)C[C@H](OC(=O)[C@H](O)[C@@H](NC(=O)c4ccccc4)c4ccccc4)C(C)=C1C3(C)C)[C@]1(OC(C)=O)CO[C@@H]1C[C@@H]2O [Paclitaxel, paclitaxel]",IC50,"[2]; Homo sapiens, HeLa, 96 h, read-out: β-III overexpressing HeLa IC50 (µM) ± SD",0.016 ± 0.001 µM
same,IC50,Parental OVCAR-8 cells,0.005 ± 0.001 µM
same,IC50,[5],2.5 µM
